Structures are written as SMILES. Read-outs that look alike come from different tables or passages of the source.

Assay [1] has as its system rice blast. In words: microbe, parasite or virus in culture. The format is cell-based. The following applies: for the inhibition rate against rice blast (%) 0.03 mg/L: Table 21, 0.03 mg/L; for the inhibition rate against rice blast (%) 0.1 mg/L: Table 21, 0.1 mg/L; for the inhibition rate against rice blast (%) 0.3 mg/L: Table 21, 0.3 mg/L; for inhibition at 0.03 µg/mL: read-out: the inhibition rate against rice blast (%) 0.03 mg/L; for inhibition at 0.1 µg/mL: read-out: the inhibition rate against rice blast (%) 0.1 mg/L; for inhibition at 0.3 µg/mL: read-out: the inhibition rate against rice blast (%) 0.3 mg/L; for inhibition rate against rice blast: in vitro.

The subject of assay [2] is cucumber gray mold. In words: Activity in vitro (96-well, High Through Put): inhibition rate against cucumber gray mold. It is filed as cell-based. The following applies: for inhibition at 25 µg/mL: dose 25 mg/L. How it is done:
The method is as followed: High Through Put is used in the test. The compound is dissolved in a proper solvent to become a testing solution whose concentration is designed. The solvent is selected from acetone, methanol, DMF and so on according to their dissolving capability to the sample. In a no animalcule condition, the testing solution and pathogens suspension are added into the cells of 96 cells culture board, which then should be placed in the constant temperature box. 24 hours later, pathogen germination or growth can be investigated by eyeballing, and the activity in vitro of the compound is evaluated based on germination or growth of control treatment.

In assay [3] the test system is corn rust. In words: Protectant activity in vivo (whole plant) against corn rust. The gist of the method: (§1)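 Whole plants sprayed with test solution, water plus 0.1% Tween-80 and no more than 5% solvent, then inoculated with the pathogen after 24 h. Plants held in humidity chamber or directly in greenhouse depending on fungus. Disease control scored by eye at about 7 days.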

Assay [4] has as its system cucumber downy mildew. Put plainly: Protectant activity in vivo (whole plant) against cucumber downy mildew. The method, boiled down:
as §1

[5] abbreviates: Pyricularia oryzae, read-out: inhibition rate against rice blast.
The mark [6] stands for this setting: 0.9 mg/L, read-out: the inhibition rate against cucumber gray mold (%).
The mark [7] stands for this setting: 2.8 mg/L, read-out: the inhibition rate against cucumber gray mold (%).
Where [8] appears, read: 8.3 mg/L, read-out: the inhibition rate against cucumber gray mold (%).

For `N#Cc1c(Cl)c(Cl)c(C#N)c(Nc2c(F)cc([N+](=O)[O-])cc2F)c1Cl` [Compound C-45], in assay [1], the “the inhibition rate against rice blast (%) 0.03 mg/L” value (“the inhibition rate … (%) 0.03 mg/L” below) is 100%. Moreover, the “the inhibition rate against rice blast (%) 0.1 mg/L” value (shortened to “the inhibition rate … (%) 0.1 mg/L”) in assay [1] is 100%. Moreover, the “the inhibition rate against rice blast (%) 0.3 mg/L” value (“the inhibition rate … (%) 0.3 mg/L” below) in assay [1] is 100%. Besides, the “the inhibition rate against cucumber gray mold (%)” value in assay [2] (0.3 mg/L), in assay [2] (0.9 mg/L), in assay [2] (2.8 mg/L) and in assay [2] (8.3 mg/L) was 100% each time.

As to `N#Cc1c(Cl)c(Cl)c(C#N)c(Nc2c(Cl)cc([N+](=O)[O-])cc2Br)c1Cl` [Compound C-49], in assay [1], the “the inhibition rate … (%) 0.03 mg/L” value is given as 100%. For the same compound, the “the inhibition rate … (%) 0.1 mg/L” value in assay [1] turned out to be 100%. Moreover, the “the inhibition rate … (%) 0.3 mg/L” value in assay [1] was determined as 100%. Further, the “the protectant activity (%) against corn rust” value in assay [3] (6.25 mg/L) was 50%; in assay [3] (25 mg/L), 80%; in assay [3] (100 mg/L) it was 90%; in assay [3] (400 mg/L), 100%. Besides, the “protectant activity against corn rust in vivo” value in assay [3] (dose 400 mg/L) is reported as 100%.

For `N#Cc1c(F)c(F)c(Nc2ccc([N+](=O)[O-])cc2)c(C#N)c1F` [KC11], the inhibition at 0.9 µg/mL in assay [1] (setting [5]) and in assay [2] (setting [6]) was 0% in each case. Besides, in assay [1] (Pyricularia oryzae), the inhibition at 0.03 µg/mL stood at 0%. For the same compound, the inhibition at 0.1 µg/mL in assay [1] (Pyricularia oryzae) was 0%. Also, the inhibition at 0.3 µg/mL in assay [1] (Pyricularia oryzae) and in assay [2] (0.3 mg/L) was 0% each time. Moreover, the inhibition at 2.8 µg/mL was determined as 0% in assay [2] (setting [7]) and 0% in assay [2] (in vitro, dose 2.8 mg/L, read-out: inhibition rate against cucumber gray mold). For the same compound, in assay [2] (setting [8]), the inhibition at 8.3 µg/mL was 50%. Also, the pest or weed control at 12.5 µg/mL in assay [4] (Cucumis sativus, 168 h, 12.5 mg/L) is 0%. The pest or weed control at 25 µg/mL in assay [4] (Cucumis sativus, 168 h, 25 mg/L, read-out: the protectant activity (%) against cucumber downy mildew) came out at 0%; in assay [4] (Cucumis sativus, 168 h, dose 25 mg/L, read-out: protectant activity against cucumber downy mildew in vivo), 0%. Moreover, the pest or weed control at 50 µg/mL in assay [4] (Cucumis sativus, 168 h, 50 mg/L, read-out: the protectant activity (%) against cucumber downy mildew) was found to be 0%; in assay [4] (Cucumis sativus, 168 h, dose 50 mg/L, read-out: protectant activity against cucumber downy mildew in vivo), 0%. The pest or weed control at 100 µg/mL in assay [4] (Cucumis sativus, 168 h, 100 mg/L, read-out: the protectant activity (%) against cucumber downy mildew) amounted to 0%.

As to `COC(=O)c1cc(Cl)c(Nc2c(Cl)c(Cl)c(C#N)c(Cl)c2C#N)c(Cl)c1` [Compound B-62], the “the inhibition rate … (%) 0.03 mg/L” value in assay [1] was 0%. In assay [1], the “the inhibition rate … (%) 0.1 mg/L” value worked out at 80%. Further, in assay [1], the “the inhibition rate … (%) 0.3 mg/L” value was 100%. Moreover, the “the protectant activity (%) against corn rust” value in assay [3] (6.25 mg/L) is reported as 0%; in assay [3] (25 mg/L), 30%; in assay [3] (100 mg/L) it was 60%; in assay [3] (400 mg/L), 100%. In assay [3] (dose 400 mg/L), the “protectant activity against corn rust in vivo” value worked out at 100%.

Turning to `N#Cc1c(F)c(F)c(Nc2ccc(C(F)(F)F)cc2Cl)c(C#N)c1F` [Compound B-92], the “inhibition rate against rice blast” value in assay [1] (dose 0.3 mg/L) was 80%. Also, the “protectant activity against corn rust in vivo” value in assay [3] (dose 100 mg/L) and in assay [3] (dose 400 mg/L) was 100% each time. Besides, the figures for the “protectant activity against cucumber downy mildew in vivo” value in assay [4] (dose 50 mg/L), in assay [4] (dose 100 mg/L) and in assay [4] (dose 400 mg/L) were 98%, 100% and 100%, respectively.

For `CN(C)c1ccc(Nc2c(Cl)c(Cl)c(C#N)c(Cl)c2C#N)cc1` [KC23], the inhibition at 25 µg/mL in assay [1] (setting [5]) came to 0%. Besides, in assay [1] (Pyricularia oryzae), the inhibition at 0.03 µg/mL stood at 0%, the inhibition at 0.1 µg/mL is 0% and the inhibition at 0.3 µg/mL worked out at 0%. Also, the inhibition at 0.3 µg/mL in assay [2] (0.3 mg/L) turned out to be 0%. Besides, the inhibition at 0.9 µg/mL in assay [2] (setting [6]) was found to be 0%. In addition, the inhibition at 2.8 µg/mL in assay [2] (setting [7]) was determined as 0%. The inhibition at 8.3 µg/mL in assay [2] (setting [8]) came out at 0%. The compound also registered an inhibition at 25 µg/mL in assay [2] (in vitro) of 0%.

In the case of `N#Cc1c(Cl)c(Cl)c(Nc2cc(C(F)(F)F)ccc2Cl)c(C#N)c1Cl` [Compound B-29], the “the inhibition rate … (%) 0.03 mg/L” value in assay [1] is reported as 0%. Moreover, the “the inhibition rate … (%) 0.1 mg/L” value in assay [1] was 50%. The “the inhibition rate … (%) 0.3 mg/L” value in assay [1] is reported as 100%. Besides, the “the inhibition rate against cucumber gray mold (%)” value was found to be 50% in assay [2] (0.9 mg/L), 80% in assay [2] (2.8 mg/L) and 80% in assay [2] (8.3 mg/L). Moreover, in assay [2] (in vitro, dose 8.3 mg/L), the “inhibition rate against cucumber gray mold” value is 80%. In addition, the “the protectant activity (%) against cucumber downy mildew” value in assay [4] (12.5 mg/L) is 30%; in assay [4] (25 mg/L) it was 100%; in assay [4] (50 mg/L) it was 100%; in assay [4] (100 mg/L), 100%. The “protectant activity against cucumber downy mildew in vivo” value in assay [4] (dose 25 mg/L), in assay [4] (dose 50 mg/L), in assay [4] (dose 100 mg/L) and in assay [4] (dose 400 mg/L) was 100% each time.

On to `N#Cc1c(Cl)c(Cl)c(Nc2c(Cl)c(Cl)c(C#N)c(Cl)c2C#N)c(C#N)c1Cl` [Compound B-69], for which the “inhibition rate against rice blast” value in assay [1] (dose 8.3 mg/L) stood at 80%. In assay [3] (dose 400 mg/L), the “protectant activity against corn rust in vivo” value is recorded as 100%. In addition, in assay [4] (dose 400 mg/L), the “protectant activity against cucumber downy mildew in vivo” value came to 100%.

Regarding `N#Cc1cc(Cl)c(Nc2c(Cl)c(Cl)c(C#N)c(Cl)c2C#N)c(Cl)c1` [Compound B-51], in assay [1], the “the inhibition rate … (%) 0.03 mg/L” value is listed as 0%, the “the inhibition rate … (%) 0.1 mg/L” value stood at 50% and the “the inhibition rate … (%) 0.3 mg/L” value came to 100%. Moreover, the “the inhibition rate against cucumber gray mold (%)” value in assay [2] (0.9 mg/L) was 80%. In assay [2] (2.8 mg/L), the “the inhibition rate against cucumber gray mold (%)” value stood at 80%. Also, the “the inhibition rate against cucumber gray mold (%)” value in assay [2] (8.3 mg/L) was 100%.

For the compound `N#Cc1c(F)c(F)c(Nc2c(Cl)c(F)nc(F)c2Cl)c(F)c1C#N` [KC28], the inhibition at 2.8 µg/mL in assay [1] (setting [5]) and in assay [2] (setting [7]) was 0% in each case. Moreover, the inhibition at 8.3 µg/mL in assay [1] (setting [5]) amounted to 50%; in assay [2] (setting [8]), 0%; in assay [2] (in vitro, dose 8.3 mg/L, read-out: inhibition rate against cucumber gray mold) it was 0%. Moreover, the inhibition at 25 µg/mL in assay [1] (setting [5]) and in assay [2] (in vitro) was 80% each time. The inhibition at 0.03 µg/mL in assay [1] (Pyricularia oryzae) came out at 0%. The inhibition at 0.1 µg/mL in assay [1] (Pyricularia oryzae) came to 0%. The inhibition at 0.3 µg/mL in assay [1] (Pyricularia oryzae) and in assay [2] (0.3 mg/L) was 0% in each case. Moreover, the inhibition at 0.9 µg/mL in assay [2] (setting [6]) worked out at 0%.

On to `CN(C)c1c(Cl)c(Nc2c(Cl)cc([N+](=O)[O-])cc2Cl)c(C#N)c(Cl)c1C#N` [Compound B-73], for which, in assay [1], the “the inhibition rate … (%) 0.03 mg/L” value was 0%. In addition, the “the inhibition rate … (%) 0.1 mg/L” value in assay [1] turned out to be 0%. Moreover, in assay [1], the “the inhibition rate … (%) 0.3 mg/L” value was determined as 80%. The “inhibition rate against rice blast” value in assay [1] (dose 0.3 mg/L) was found to be 80%. Besides, the “the protectant activity (%) against corn rust” value in assay [3] (6.25 mg/L) is on record as 30%; in assay [3] (25 mg/L), 70%; in assay [3] (100 mg/L), 100%; in assay [3] (400 mg/L) it was 98%. In addition, the “protectant activity against corn rust in vivo” value in assay [3] (dose 100 mg/L) and in assay [3] (dose 400 mg/L) was 100% in each case. In addition, the “the protectant activity (%) against cucumber downy mildew” value in assay [4] (25 mg/L) amounted to 50%; in assay [4] (50 mg/L), 100%; in assay [4] (100 mg/L), 100%. Moreover, the “protectant activity against cucumber downy mildew in vivo” value in assay [4] (dose 50 mg/L), in assay [4] (dose 100 mg/L) and in assay [4] (dose 400 mg/L) was 100% throughout.

Source of the values: patent publication US8937072B2, “Substituted cyanoaniline compounds, preparation and use thereof” (Sinochem Corporation, priority 2011, dated 2015).
